The numbers were not newly measured in PMC5238771 (OncoTargets and therapy, 2017), which cites them from elsewhere.

The subject of one data set is CYP3A4 enzyme. Conditions: both in vitro and in vivo.
Data set [1] deals with HepG2 human hepatocellular carcinoma cell line. Conditions: HepG2 cells, dose-dependent and time-dependent.
For data set [2], the system named is SMMC-7721 human hepatocellular carcinoma cell line. Conditions: SMMC-7721 cells, dose-dependent and time-dependent.

On to `C[C@]12CC[C@H](O)C[C@H]1CC[C@@H]1[C@@H]2CC[C@]2(C)[C@@H](c3ccc(=O)oc3)CC[C@]12O` [bufalin], for which the “Inhibition of CYP3A4 enzyme” value with CYP3A4 enzyme is recorded as “modest but significant inhibition”. Moreover, the Inhibition of proliferation result in data set [1] and in data set [2] was “inhibited the proliferation” throughout.
